Data on three molecules can be found in patent publication US10316008B2, “KCNQ potassium channel agonist, and preparation method therefor and use thereof” (SHANGHAI INSTITUTE OF MATERIA MEDICA, CHINESE ACADEMY OF …, priority 2014, dated 2019).

“Also recorded” adds a separate entry of the source. Where a name gives a salt, the structure may show the parent alone. Read-outs that look alike come from different tables or passages of the source. A value given as a limit tells only on which side of the number the result lay.

Data set [1] concerns convulsive mice induce by MES. The data set can be described thus: MES (maximum electroshock) induced convulsion model, oral perfusion. It is filed as in vivo, KM mice. The settings on record: for ED50: Mus musculus, 0.5 h, oral perfusion, MES 30 mins after administration, read-out: ED50 (50% effective dose); for ED50 / efficacy against MES compared with RTG: mice; for protective effect on convulsive mice induce by MES: orally administered. The text has this:
YLS-9A model physiological pharmaceutical electronic stimulator was used in the experiment to induce convulsion of mice, and specific parameters were set as follows: configuration 8, stimulating voltage: 160V, period of stimulation: 5.4 sec. Healthy KM mice (SPF level, male, body weight: 18 to 22 g) were selected for the experiment. After the ear tip of the mice was sufficiently wetted with physiological saline, the mice was electrically stimulated once with ear clip electrode, and tonic hind-limb seizure was deemed as indication of convulsion. The mice were screened one day before the experiment to weed out the dead mice and the ones without generalized tonic seizure. The qualified mice were caged randomly with access to water at liberty. Before the experiment started, the mice were fasted for 8 h.
The compounds to be tested were freshly formulated on the day of experiment. RTG hydrochloride was dissolved with ultrapure water to obtain a solution with desired concentration. K41.HCl and K43.HCl were formulated with 5% DMSO+95% of 1% Tween80, that is, a proper amount of the compound to be tested was weighted and, first, sufficiently dissolved in 5% DMSO, and then added with a desire volume of 1% Tween80 to be sufficiently suspended to form a suspension with a certain drug concentration. The mice screened one day before were randomly grouped with each group having 10 mice, marked, weighted and then administered with the compound to be tested or solvent (5% DMSO+95% (1% Tween 80)) by oral perfusion with administered volume of 0.2 ml/10 g. The dose range for each compound was 1 to 56 mg/kg for RTG, 1 to 40 mg/kg for K41.HCl, and 0.5 to 4 mg/kg for K43.HCl. 30 mins after administration, MES experiment was performed and the experimental parameters were the same as the above. The number of mice with generalized tonic-clonic convulsion in each group was recorded, the protection rate of each of the compounds to be tested on convulsive mice induce by MES was calculated and dose-response curve for each compound was plotted. The dose-response curve for each compound was obtained according to the analysis of Graphpad Prism 5 software, as shown in FIG. 3.

Data set [2] concerns motor coordination ability of mice. Kind of data set: Rotarod experiment, motor coordination ability (acute neurotoxicity). It is filed as in vivo, KM mice. The settings on record: for P.I (Protective index)=TD50/ED50: TD50 Rotarod / ED50 MES. The protocol: (§1) YLS-4C Rotarod system was used in the experiment, wherein the diameter of the rod was 3 cm and the rotate speed was set at 6 rpm. Healthy KM mice (SPF level) were selected, wherein male and female were equal, the body weight was 18 to 22 g. One day before experiment, the mice were place on the rotarod for training and screening. The tail tip of mice was held to make them creep on the rotarod during the training. […] The mice that jumped on the rotarod or griped the rotarod were weed out. In addition, three time periods were set with 1 min for each. […] The qualified mice were randomly caged according to the gender, and allowed to eat and drink freely.
(§2) On the day of the experiment, each compound to be tested was freshly formulated by the same method as described in MES experiment. If the compound was not sufficiently suspended, the suspension was further mixed by ultrasonication for 20 min so as to make the compound sufficiently suspended. […] 30 mins after administration, Rotarod experiment was performed and the experiment parameters were the same as the above. The number of mice that fell off from the rorarod was recorded, and the influence of each compound on motor coordination ability of mice was analyzed. The curve for dose of each compound verse motor deficit (percentage) of mice for each compound was obtained according to the analysis of Graphpad Prism 5 software and was shown in FIG. 4.

Assay in data set [3]: as above
The settings on record: both sexes, KM, mouse, in vivo; mice, oral perfusion, Rotarod 30 mins after administration; read-out: TD50 (50% acute neurotoxicity dose). It is filed as in vivo, KM mice. The protocol:
as §1, §2
For orientation: In the rotarod test animals must keep their balance on a rotating rod.

Data set [4] can be described thus: Pharmacokinetics and distribution in brain tissue in mice. The settings on record: for Kp: brain/plasma, read-out: AUC0-t ratio (brain/plasma); for Kp / Cmax / Tmax / half-life / MRT inf / AUC(0-inf) / AUC0-t / clearance / Vd / AUC0-∞: mice; for MRT inf: read-out: MRT0-∞; for Vd: read-out: Vss; for bioavailability: oral, ICR mice, intragastric perfusion 5 mg/kg vs intravenous 2 mg/kg, read-out: F (oral bioavailability). It is filed as in vivo, ICR mice. The protocol:
K43.HCl was formulated to a 0.5 mg/ml solution for intragastric perfusion by using 5% DMSO/5% Tween80/[…] physiological saline; to a 0.2 mg/ml solution for intravenous injection by diluting the above solution for intragastric perfusion with physical saline containing 1% Tween 80.
84 healthy ICR mice (male, body weight, 18-20 g) were fasted for 8 h with access to water at liberty before the experiment. The mice were fed at the same time 2 h after administration of the compound.
After administration by intragastric perfusion, mice were sacrificed by cutting abdominal aorta at the time points set as the above with 3 mice for each time point. 0.5 mL of whole blood was collected for each animal, placed into a heparinized test tube and subjected to centrifugation at 11000 rpm for 5 min to separate plasma, which was then cryopreserved in a −20° C. refrigerator. After the animal was sacrificed, its whole brain was collected, washed with ice-cooled physiological saline to remove residual blood, absorbed to dryness, labeled and cryopreserved in a −20° C. refrigerator. After administration by intravenous injection, 0.5 mL of venous blood was collected from venous plexus behind eyeball, placed into a heparinized test tube and subjected to centrifugation at 11000 rpm for 5 min to separate plasma, which was then cryopreserved in a −20° C. refrigerator. The concentration of each compound in plasma and brain tissue was determined by LC-MS/MS.
Pharmacokinetic parameters after administration were calculated according to the obtained data of plasma concentration, using the non-compartmental model of Phoenix 1.3 software (Pharsight Co., USA).

Where [5] appears, read: male, ICR, mouse, po, intragastric perfusion 5 mg/kg.
The mark [6] stands for this setting: male, ICR, mouse, po, intragastric perfusion 5 mg/kg, brain.
[7] abbreviates: male, ICR, mouse, po, intragastric perfusion 5 mg/kg, plasma.
Setting [8] is: male, ICR, mouse, po, intragastric perfusion 5 mg/kg, plasma, read-out: AUC0-t.
Where [9] appears, read: male, ICR, mouse, intravenous injection 2 mg/kg, plasma.
The mark [10] stands for this setting: male, ICR, mouse, intravenous injection 2 mg/kg, plasma, read-out: AUC0-t.
[11] abbreviates: intragastric perfusion 5 mg/kg, brain.

As for `C#CCN(Cc1ccc(F)cc1)c1cc(C)c(NC(=O)OC)c(C)c1.Cl` [K43•HCl, methyl 4-(N-parafluorobenzyl-N-propargyl-amino)-2,6-dimethylphenylaminoformate hydrochloride], in data set [1], the 50% effective dose (ED50) is 1.6 mg/kg and the “protective effect on convulsive mice induce by MES” value is reported as “dose dependent protective effect”. In data set [2], the “P.I (Protective index)=TD50/ED50” value is 95.25. For the same molecule, in data set [3], the TD50 at 30 min was 152 mg/kg. Also, in data set [4] (setting [5]), the Kp was 7.2. Further, in data set [4] (setting [6]), the peak level (Cmax) was 1430 ng/g, the time of peak concentration (Tmax) worked out at 15 min, the half-life was 63.6 min and the MRT inf is 77.4 min. Also, in data set [4] (setting [7]), the AUC(0-inf) was 189 ng·h/mL, the peak level (Cmax) was 350 ng/mL, the time to peak (Tmax) was found to be 15 min and the half-life is 37.2 min. Besides, in data set [4] (setting [7]), the MRT inf turned out to be 56.4 min. Further, the AUC0-t in data set [4] (setting [8]) stood at 184 ng·h/mL. Moreover, in data set [4] (setting [9]), the total exposure AUC(0-inf) amounted to 334 ng·h/mL, the clearance is 100 mL/min/kg, the half-life was 24 min and the MRT inf is 25.8 min. For the same molecule, the Vd in data set [4] (setting [9]) came out at 2.61 L/kg. Besides, the AUC0-t in data set [4] (setting [10]) is 326 ng·h/mL. For the same molecule, the bioavailability in data set [4] (male, mouse, plasma) is 22.5%. In data set [4] (setting [11]), the AUC0-t came to 1329 ng·h/g and the “AUC0-∞” value turned out to be 1346 ng·h/g.
With `C#CCN(Cc1ccc(F)cc1)c1ccc(NC(=O)OC)c(C)c1` [K41•HCl], in data set [1], the ED50 amounted to 4.8 mg/kg and the “protective effect on convulsive mice induce by MES” value is “dose dependent protective effect”. In addition, the “efficacy against MES compared with RTG” value in data set [1] (listed as K31) was “higher than that of RTG”. The “efficacy against MES compared with RTG” value in data set [1] (listed as k41) was “superior to that of RTG”. For the same molecule, in data set [2], the “neurotoxicity compared with RTG” value was “weaker neurotoxicity than RTG” and the “P.I (Protective index)=TD50/ED50” value came to 21.54. For the same molecule, in data set [3], the TD50 at 30 min came to 103 mg/kg. The Kp in data set [4] (setting [5]) stood at 2.6. Further, in data set [4] (setting [6]), the Cmax stood at 1470 ng/g, the time of peak concentration (Tmax) was determined as 15 min, the half-life was 37.8 min and the MRT inf is 66 min. Besides, in data set [4] (setting [7]), the total exposure AUC(0-inf) was found to be 654 ng·h/mL, the concentration peaked (Cmax) at 606 ng/mL, the Tmax came out at 15 min and the half-life is 38.4 min. For the same molecule, the MRT inf in data set [4] (setting [7]) is 62.4 min. The AUC0-t in data set [4] (setting [8]) stood at 646 ng·h/mL. Moreover, in data set [4] (setting [9]), the total exposure AUC(0-inf) amounted to 294 ng·h/mL, the clearance is 114 mL/min/kg, the half-life was 29.4 min and the MRT inf turned out to be 27 min. In data set [4] (setting [9]), the Vd came to 3.04 L/kg. For the same molecule, in data set [4] (setting [10]), the AUC0-t stood at 281 ng·h/mL. In addition, in data set [4] (male, mouse, plasma), the bioavailability worked out at 91.9%. Also, in data set [4] (setting [11]), the AUC0-t turned out to be 1680 ng·h/g and the “AUC0-∞” value was determined as 1684 ng·h/g.
As to `C#CCN(Cc1ccc(F)cc1)c1cc(C)c(NC(=O)OC)c(C)c1` [Compound K43, methyl 4-(N-parafluorobenzyl-N-propargyl-amino)-2,6-dimethylphenylaminoformate], the “efficacy against MES compared with RTG” value in data set [1] was “higher than that of RTG; also recorded: superior to that of RTG”. Besides, the “neurotoxicity compared with RTG” value in data set [2] is on record as “weaker neurotoxicity than RTG”. The Kp in data set [4] (setting [5]) was at least 7.

Usually ED50 stands for the dose that gives a 50% effect, or the effect in half of the subjects. A word on the TD50: it is the dose at which the toxic effect under study appears in half of the subjects. For orientation: Cmax means the peak of the concentration-time curve. In general, Tmax refers to the time from dosing to the highest level. Broadly, the half-life is the time needed for the level to fall by half in the phase considered. Low values mean rapid decline, high ones slow decline. As usually defined, the AUC(0-inf) is the area under the concentration-time curve extrapolated to infinity. A high value points to high exposure. The term clearance denotes the rate of elimination divided by the concentration. As usually defined, the bioavailability is dose-corrected exposure relative to a reference, in per cent.
